{
  "source": "ChEMBL document CHEMBL1821675",
  "about": "“The selective P-TEFb inhibitor CAN508 targets angiogenesis” (Eur J Med Chem, 2011)",
  "key": {"[1]": {"test": "Inhibition of TNF-alpha-induced Nuclear factor-kappa-B-mediated ICAM-1 expression in human HMEC1 cells after 24 hrs by FACS analysis", "assay_type": "cell-based", "conditions": "HMEC-1, 24 h"}, "[2]": {"target": "Receptor-interacting serine/threonine-protein kinase 2 (Homo sapiens) (UniProt O43353)", "sequence (O43353 whole entry)": "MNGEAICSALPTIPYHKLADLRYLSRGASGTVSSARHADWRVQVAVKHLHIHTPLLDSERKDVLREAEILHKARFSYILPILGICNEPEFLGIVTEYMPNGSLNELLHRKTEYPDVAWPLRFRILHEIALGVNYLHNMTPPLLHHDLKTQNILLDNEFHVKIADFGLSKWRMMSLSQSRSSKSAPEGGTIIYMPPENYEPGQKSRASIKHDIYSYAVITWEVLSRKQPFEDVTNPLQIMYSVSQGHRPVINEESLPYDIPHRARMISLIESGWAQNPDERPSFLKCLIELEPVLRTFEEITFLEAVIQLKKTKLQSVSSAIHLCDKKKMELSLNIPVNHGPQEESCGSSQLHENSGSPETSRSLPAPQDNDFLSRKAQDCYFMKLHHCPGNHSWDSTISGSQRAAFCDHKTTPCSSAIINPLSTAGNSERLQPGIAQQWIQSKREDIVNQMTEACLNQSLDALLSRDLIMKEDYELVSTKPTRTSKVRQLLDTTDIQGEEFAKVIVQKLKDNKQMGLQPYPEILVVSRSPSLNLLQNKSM", "test": "Inhibition of RIPK2 assessed as residual activity at 10 uM by radioactivity assay in presence of 20 uM ATP"}, "[3]": {"target": "MAP kinase-interacting serine/threonine-protein kinase 2 (Homo sapiens) (UniProt Q9HBH9)", "test": "Inhibition of MNK2alpha assessed as residual activity at 10 uM by radioactivity assay in presence of 50 uM ATP"}, "[4]": {"target": "Cyclin-dependent kinase 9 (Homo sapiens) (UniProt P50750)", "test": "Inhibition of CDK9-catalyzed RNA polymerase 2 phosphorylation at Ser2 in human MCF7 cells after 2 hrs by immunoblotting", "assay_type": "cell-based"}, "[5]": {"target": "Serine/threonine-protein kinase PLK1 (Homo sapiens) (UniProt P53350)", "test": "Inhibition of PLK1 assessed as residual activity at 10 uM by radioactivity assay in presence of 5 uM ATP"}, "OVCAR-8": {"tested_on": "OVCAR-8", "test": "Cytotoxicity against human OVCAR8 cells", "assay_type": "functional"}, "[6]": {"target": "Ephrin type-A receptor 4 (Homo sapiens) (UniProt P54764)", "test": "Inhibition of EPHA4 assessed as residual activity at 10 uM by radioactivity assay in presence of 50 uM ATP"}, "[7]": {"target": "Serine/threonine-protein kinase PAK 2 (Homo sapiens) (UniProt Q13177)", "test": "Inhibition of PAK2 assessed as residual activity at 10 uM by radioactivity assay in presence of 20 uM ATP"}, "[8]": {"target": "Protein kinase C zeta type (Homo sapiens) (UniProt Q05513)", "test": "Inhibition of PKCzeta assessed as residual activity at 10 uM by radioactivity assay in presence of 5 uM ATP"}, "[9]": {"target": "Mitogen-activated protein kinase 12 (Homo sapiens) (UniProt P53778)", "test": "Inhibition of p38-gamma MAPK assessed as residual activity at 10 uM by radioactivity assay in presence of 5 uM ATP"}, "[10]": {"target": "MAP kinase-activated protein kinase 5 (Homo sapiens) (UniProt Q8IW41)", "test": "Inhibition of PRAK assessed as residual activity at 10 uM by radioactivity assay in presence of 20 uM ATP"}, "RXF 393": {"tested_on": "RXF 393", "test": "Cytotoxicity against human RXF393 cells", "assay_type": "functional"}, "[11]": {"target": "Homeodomain-interacting protein kinase 2 (Homo sapiens) (UniProt Q9H2X6)", "test": "Inhibition of HIPK2 assessed as residual activity at 10 uM by radioactivity assay in presence of 5 uM ATP"}, "ACHN": {"tested_on": "ACHN", "test": "Cytotoxicity against human ACHN cells", "assay_type": "functional"}, "DU-145": {"tested_on": "DU-145", "test": "Decrease in VEGF expression in human DU145 cells at >10 uM after 24 hrs by sandwich ELISA", "assay_type": "functional, cell-based"}, "[12]": {"target": "Serine/threonine-protein kinase Sgk1 (Homo sapiens) (UniProt O00141)", "test": "Inhibition of SGK1 assessed as residual activity at 10 uM by radioactivity assay in presence of 20 uM ATP"}, "[13]": {"target": "Mitogen-activated protein kinase kinase kinase kinase 2 (Homo sapiens) (UniProt Q12851)", "sequence (Q12851 whole entry)": "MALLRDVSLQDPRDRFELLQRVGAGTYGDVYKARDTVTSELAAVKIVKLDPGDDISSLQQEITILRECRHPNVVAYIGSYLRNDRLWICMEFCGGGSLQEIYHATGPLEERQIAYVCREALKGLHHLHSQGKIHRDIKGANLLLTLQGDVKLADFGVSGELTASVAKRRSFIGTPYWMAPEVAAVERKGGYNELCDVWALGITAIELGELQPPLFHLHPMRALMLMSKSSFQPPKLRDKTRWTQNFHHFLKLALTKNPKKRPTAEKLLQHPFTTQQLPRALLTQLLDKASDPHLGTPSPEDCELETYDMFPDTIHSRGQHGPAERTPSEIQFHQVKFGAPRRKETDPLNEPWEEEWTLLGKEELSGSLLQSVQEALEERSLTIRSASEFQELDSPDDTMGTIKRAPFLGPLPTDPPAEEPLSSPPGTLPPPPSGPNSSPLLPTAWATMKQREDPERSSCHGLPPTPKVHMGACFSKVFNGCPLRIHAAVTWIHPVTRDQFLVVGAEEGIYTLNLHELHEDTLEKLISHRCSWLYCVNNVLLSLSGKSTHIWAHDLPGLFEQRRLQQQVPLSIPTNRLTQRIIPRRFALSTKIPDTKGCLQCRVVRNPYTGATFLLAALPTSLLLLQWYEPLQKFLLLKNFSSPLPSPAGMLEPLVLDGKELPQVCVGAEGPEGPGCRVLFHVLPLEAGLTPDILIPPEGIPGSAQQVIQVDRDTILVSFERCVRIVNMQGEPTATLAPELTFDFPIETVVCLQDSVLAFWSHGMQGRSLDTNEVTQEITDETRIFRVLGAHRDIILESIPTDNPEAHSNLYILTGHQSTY", "test": "Inhibition of GCK assessed as residual activity at 10 uM by radioactivity assay in presence of 20 uM ATP"}, "MOLT-4": {"tested_on": "MOLT-4", "test": "Cytotoxicity against human MOLT4 cells", "assay_type": "functional"}, "[14]": {"test": "Antiproliferative activity against HMEC1 cells assessed as decrease in cell viability at >50 uM within 72 hrs by calcein AM staining-based fluorescence assay", "conditions": "human, hmec-1, 72 h"}, "HUVEC": {"tested_on": "HUVEC", "test": "Antiangiogenic activity against HUVEC cells assessed as inhibition of VEGF-induced cell migration-associated wound closure at >10 uM after 16 hrs by microscopic analysis", "assay_type": "functional, cell-based", "conditions": "Homo sapiens"}, "CAKI-1": {"tested_on": "CAKI-1", "test": "Cytotoxicity against human Caki1 cells", "assay_type": "functional"}, "[15]": {"target": "Misshapen-like kinase 1 (Homo sapiens) (UniProt Q8N4C8)", "sequence (Q8N4C8 whole entry, looked up)": "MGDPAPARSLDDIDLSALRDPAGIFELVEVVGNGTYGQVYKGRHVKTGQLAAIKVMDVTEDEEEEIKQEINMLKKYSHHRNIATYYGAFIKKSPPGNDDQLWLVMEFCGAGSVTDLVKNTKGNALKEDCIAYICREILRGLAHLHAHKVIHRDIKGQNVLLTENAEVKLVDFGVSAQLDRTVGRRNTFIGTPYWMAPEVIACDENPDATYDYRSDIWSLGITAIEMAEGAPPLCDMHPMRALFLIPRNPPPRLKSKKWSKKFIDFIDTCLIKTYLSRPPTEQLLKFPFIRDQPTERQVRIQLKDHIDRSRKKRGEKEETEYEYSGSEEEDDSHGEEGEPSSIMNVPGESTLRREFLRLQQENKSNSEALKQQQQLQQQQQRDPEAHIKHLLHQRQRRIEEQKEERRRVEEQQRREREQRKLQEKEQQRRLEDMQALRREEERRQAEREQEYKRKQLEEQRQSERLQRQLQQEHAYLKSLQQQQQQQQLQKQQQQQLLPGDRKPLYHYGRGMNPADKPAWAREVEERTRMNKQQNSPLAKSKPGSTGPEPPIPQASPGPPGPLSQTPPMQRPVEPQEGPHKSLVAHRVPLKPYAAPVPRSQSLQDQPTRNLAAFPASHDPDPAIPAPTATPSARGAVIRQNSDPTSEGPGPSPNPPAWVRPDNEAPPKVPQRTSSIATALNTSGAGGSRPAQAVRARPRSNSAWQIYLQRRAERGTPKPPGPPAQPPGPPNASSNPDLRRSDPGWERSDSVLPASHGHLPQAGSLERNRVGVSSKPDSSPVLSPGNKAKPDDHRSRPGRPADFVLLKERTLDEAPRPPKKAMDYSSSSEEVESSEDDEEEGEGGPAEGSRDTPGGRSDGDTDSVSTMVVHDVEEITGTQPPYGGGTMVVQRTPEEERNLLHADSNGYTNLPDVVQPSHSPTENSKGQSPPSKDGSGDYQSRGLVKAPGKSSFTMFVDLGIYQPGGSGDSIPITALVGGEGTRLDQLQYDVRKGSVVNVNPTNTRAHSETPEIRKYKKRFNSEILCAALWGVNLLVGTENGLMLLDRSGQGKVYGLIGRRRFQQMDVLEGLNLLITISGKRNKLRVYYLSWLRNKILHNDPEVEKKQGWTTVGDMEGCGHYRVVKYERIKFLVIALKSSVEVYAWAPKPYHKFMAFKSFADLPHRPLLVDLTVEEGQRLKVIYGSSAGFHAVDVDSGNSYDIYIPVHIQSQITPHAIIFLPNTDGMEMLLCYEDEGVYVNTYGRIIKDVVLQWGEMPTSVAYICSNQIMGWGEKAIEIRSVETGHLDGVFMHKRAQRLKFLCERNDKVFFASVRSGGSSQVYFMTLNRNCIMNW", "test": "Inhibition of MINK1 assessed as residual activity at 10 uM by radioactivity assay in presence of 50 uM ATP"}, "HL-60(TB)": {"tested_on": "HL-60(TB)", "test": "Cytotoxicity against human HL-60(TB) cells", "assay_type": "functional"}, "[16]": {"target": "Interleukin-1 receptor-associated kinase 4 (Homo sapiens) (UniProt Q9NWZ3)", "test": "Inhibition of IRAK4 assessed as residual activity at 10 uM by radioactivity assay in presence of 20 uM ATP"}, "A498": {"tested_on": "A498", "test": "Cytotoxicity against human A498 cells", "assay_type": "functional"}, "[17]": {"target": "Proto-oncogene tyrosine-protein kinase Src (Homo sapiens) (UniProt P12931)", "sequence (P12931 2-536 limits assumed)": "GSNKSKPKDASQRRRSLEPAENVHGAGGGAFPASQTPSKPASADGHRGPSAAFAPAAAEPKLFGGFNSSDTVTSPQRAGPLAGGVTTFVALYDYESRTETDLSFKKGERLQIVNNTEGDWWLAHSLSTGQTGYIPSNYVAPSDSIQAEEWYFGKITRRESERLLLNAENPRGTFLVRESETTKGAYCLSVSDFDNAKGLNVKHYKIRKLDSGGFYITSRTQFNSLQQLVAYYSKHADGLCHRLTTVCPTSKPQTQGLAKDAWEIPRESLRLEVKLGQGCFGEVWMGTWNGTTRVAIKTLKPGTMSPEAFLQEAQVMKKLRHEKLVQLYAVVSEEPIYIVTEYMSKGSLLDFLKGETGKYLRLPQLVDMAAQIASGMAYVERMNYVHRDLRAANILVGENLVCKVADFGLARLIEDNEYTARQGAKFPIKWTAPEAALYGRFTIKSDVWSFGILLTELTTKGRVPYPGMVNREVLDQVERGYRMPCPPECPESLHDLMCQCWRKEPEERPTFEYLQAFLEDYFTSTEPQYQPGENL", "test": "Inhibition of Src assessed as residual activity at 10 uM by radioactivity assay in presence of 50 uM ATP"}, "[18]": {"target": "Serine/threonine-protein kinase Chk1 (Homo sapiens) (UniProt O14757)", "test": "Inhibition of CHK1 assessed as residual activity at 10 uM by radioactivity assay in presence of 20 uM ATP"}, "[19]": {"target": "Mitogen-activated protein kinase 9 (Homo sapiens) (UniProt P45984)", "sequence (P45984 whole entry, looked up)": "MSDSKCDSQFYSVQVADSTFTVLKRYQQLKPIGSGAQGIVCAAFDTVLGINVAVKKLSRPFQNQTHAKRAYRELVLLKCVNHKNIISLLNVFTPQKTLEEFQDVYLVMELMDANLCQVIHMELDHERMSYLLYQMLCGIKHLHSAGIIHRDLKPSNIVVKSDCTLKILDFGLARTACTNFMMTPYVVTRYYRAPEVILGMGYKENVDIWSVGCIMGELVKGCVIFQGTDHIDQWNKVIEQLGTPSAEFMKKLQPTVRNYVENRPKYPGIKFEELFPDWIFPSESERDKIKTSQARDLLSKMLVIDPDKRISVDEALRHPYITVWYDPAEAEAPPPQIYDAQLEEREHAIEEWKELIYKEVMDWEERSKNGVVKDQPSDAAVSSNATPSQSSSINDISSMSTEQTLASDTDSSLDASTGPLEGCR", "test": "Inhibition of JNK2alpha2 assessed as residual activity at 10 uM by radioactivity assay in presence of 20 uM ATP"}, "NCI-H322M": {"tested_on": "NCI-H322M", "test": "Cytotoxicity against human NCI-H322M cells", "assay_type": "functional"}, "T47D": {"tested_on": "T47D", "test": "Cytotoxicity against human T47D cells", "assay_type": "functional"}, "MDA-MB-231": {"tested_on": "MDA-MB-231", "test": "Decrease in VEGF expression in human MDA-MB-231 cells at >10 uM after 24 hrs by sandwich ELISA", "assay_type": "functional, cell-based"}, "[20]": {"target": "Serine/threonine-protein kinase D1 (Homo sapiens) (UniProt Q15139)", "test": "Inhibition of PKD1 assessed as residual activity at 10 uM by radioactivity assay in presence of 50 uM ATP"}, "[21]": {"target": "Serine/threonine-protein kinase BRSK1 (Homo sapiens) (UniProt Q8TDC3)", "sequence (Q8TDC3 whole entry)": "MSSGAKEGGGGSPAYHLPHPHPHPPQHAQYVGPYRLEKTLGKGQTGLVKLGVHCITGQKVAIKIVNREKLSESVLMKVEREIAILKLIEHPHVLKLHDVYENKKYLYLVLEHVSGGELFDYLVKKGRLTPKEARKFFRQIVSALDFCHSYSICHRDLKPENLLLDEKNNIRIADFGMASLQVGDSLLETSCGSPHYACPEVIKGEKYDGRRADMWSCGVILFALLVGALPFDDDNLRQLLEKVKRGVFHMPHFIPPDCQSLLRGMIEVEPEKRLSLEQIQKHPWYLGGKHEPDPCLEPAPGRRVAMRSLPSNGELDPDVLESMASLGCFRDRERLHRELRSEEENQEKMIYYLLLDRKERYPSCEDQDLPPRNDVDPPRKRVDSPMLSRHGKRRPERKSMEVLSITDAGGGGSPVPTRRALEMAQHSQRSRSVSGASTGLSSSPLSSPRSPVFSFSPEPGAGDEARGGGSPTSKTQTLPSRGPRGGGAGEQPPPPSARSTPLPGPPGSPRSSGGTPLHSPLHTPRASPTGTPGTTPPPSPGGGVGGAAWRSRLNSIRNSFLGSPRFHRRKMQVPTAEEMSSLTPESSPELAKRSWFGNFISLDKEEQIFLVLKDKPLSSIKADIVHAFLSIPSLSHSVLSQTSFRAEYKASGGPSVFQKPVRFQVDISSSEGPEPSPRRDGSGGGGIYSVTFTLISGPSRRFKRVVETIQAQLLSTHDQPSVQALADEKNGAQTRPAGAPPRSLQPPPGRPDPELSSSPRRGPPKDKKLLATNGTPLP", "test": "Inhibition of BRSK1 assessed as residual activity at 10 uM by radioactivity assay in presence of 20 uM ATP"}, "SK-MEL-28": {"tested_on": "SK-MEL-28", "test": "Cytotoxicity against human SK-MEL-28 cells", "assay_type": "functional"}, "HCT-15": {"tested_on": "HCT-15", "test": "Cytotoxicity against human HCT15 cells", "assay_type": "functional"}, "[22]": {"target": "Casein kinase I isoform delta (Homo sapiens) (UniProt P48730)", "sequence (P48730 whole entry, looked up, canonical isoform)": "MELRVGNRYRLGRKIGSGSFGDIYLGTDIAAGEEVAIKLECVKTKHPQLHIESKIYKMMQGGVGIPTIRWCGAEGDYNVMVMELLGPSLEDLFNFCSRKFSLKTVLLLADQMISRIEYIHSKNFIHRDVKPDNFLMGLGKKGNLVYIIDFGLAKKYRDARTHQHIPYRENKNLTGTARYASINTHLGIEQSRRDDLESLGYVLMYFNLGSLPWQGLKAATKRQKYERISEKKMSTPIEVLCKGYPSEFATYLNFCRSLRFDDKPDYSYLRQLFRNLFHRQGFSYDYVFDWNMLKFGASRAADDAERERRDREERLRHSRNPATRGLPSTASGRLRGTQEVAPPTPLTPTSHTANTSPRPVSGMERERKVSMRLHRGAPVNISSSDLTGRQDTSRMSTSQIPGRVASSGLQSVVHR", "test": "Inhibition of CK1delta assessed as residual activity at 10 uM by radioactivity assay in presence of 20 uM ATP"}, "[23]": {"target": "Serine/threonine-protein kinase Chk2 (Homo sapiens) (UniProt O96017)", "test": "Inhibition of CHK2 assessed as residual activity at 10 uM by radioactivity assay in presence of 20 uM ATP"}, "[24]": {"target": "Serine/threonine-protein kinase N2 (Homo sapiens) (UniProt Q16513)", "test": "Inhibition of PRK2 assessed as residual activity at 10 uM by radioactivity assay in presence of 5 uM ATP"}, "[25]": {"target": "Serine/threonine-protein kinase PAK 6 (Homo sapiens) (UniProt Q9NQU5)", "test": "Inhibition of PAK6 assessed as residual activity at 10 uM by radioactivity assay in presence of 20 uM ATP"}, "PC-3": {"tested_on": "PC-3", "test": "Cytotoxicity against human PC3 cells", "assay_type": "functional"}},
  "note": "Activity calls are given as the source filed them. No cut-off for these calls is given here.",
  "data": [
    {"smiles": "Nc1n[nH]c(N)c1/N=N/c1ccc(O)cc1", "values": [
      {"measurement": "IC50", "setting": "[1]", "value": 20, "unit": "µM"},
      {"measurement": "Activity", "setting": "[2]", "value": 57, "unit": "%"},
      {"measurement": "Activity", "setting": "[3]", "value": 39, "unit": "%"},
      {"measurement": "inhibition", "setting": "[4]", "value": "Dose-dependent effect"},
      {"measurement": "Activity", "setting": "[5]", "value": 77, "unit": "%"},
      {"measurement": "GI50", "setting": "OVCAR-8", "value": 18, "unit": "µM"},
      {"measurement": "Activity", "setting": "[6]", "value": 93, "unit": "%"},
      {"measurement": "Activity", "setting": "[7]", "value": 91, "unit": "%"},
      {"measurement": "Activity", "setting": "[8]", "value": 74, "unit": "%"},
      {"measurement": "Activity", "setting": "[9]", "value": 50, "unit": "%"},
      {"measurement": "Activity", "setting": "[10]", "value": 43, "unit": "%"},
      {"measurement": "GI50", "setting": "RXF 393", "value": 18.4, "unit": "µM"},
      {"measurement": "Activity", "setting": "[11]", "value": 44, "unit": "%"},
      {"measurement": "GI50", "setting": "ACHN", "value": 15.6, "unit": "µM"},
      {"measurement": "Activity", "setting": "DU-145", "value": "Active"},
      {"measurement": "Activity", "setting": "[12]", "value": 94, "unit": "%"},
      {"measurement": "Activity", "setting": "[13]", "value": 20, "unit": "%"},
      {"measurement": "GI50", "setting": "MOLT-4", "value": 13.5, "unit": "µM"},
      {"measurement": "Activity", "setting": "[14]", "value": "Non-toxic"},
      {"measurement": "inhibition", "setting": "HUVEC", "value": "Active"},
      {"measurement": "GI50", "setting": "CAKI-1", "value": 14.8, "unit": "µM"},
      {"measurement": "Activity", "setting": "[15]", "value": 29, "unit": "%"},
      {"measurement": "GI50", "setting": "HL-60(TB)", "value": 6.4, "unit": "µM"},
      {"measurement": "Activity", "setting": "[16]", "value": 58, "unit": "%"},
      {"measurement": "GI50", "setting": "A498", "value": 18.2, "unit": "µM"},
      {"measurement": "Activity", "setting": "[17]", "value": 62, "unit": "%"},
      {"measurement": "Activity", "setting": "[18]", "value": 98, "unit": "%"},
      {"measurement": "Activity", "setting": "[19]", "value": 102, "unit": "%"},
      {"measurement": "GI50", "setting": "NCI-H322M", "value": 25.1, "unit": "µM"},
      {"measurement": "GI50", "setting": "T47D", "value": 14.2, "unit": "µM"},
      {"measurement": "Activity", "setting": "MDA-MB-231", "value": "Active"},
      {"measurement": "Activity", "setting": "[20]", "value": 67, "unit": "%"},
      {"measurement": "Activity", "setting": "[21]", "value": 66, "unit": "%"},
      {"measurement": "GI50", "setting": "SK-MEL-28", "value": 22.1, "unit": "µM"},
      {"measurement": "GI50", "setting": "HCT-15", "value": 24.2, "unit": "µM"},
      {"measurement": "Activity", "setting": "[22]", "value": 27, "unit": "%"},
      {"measurement": "Activity", "setting": "[23]", "value": 57, "unit": "%"},
      {"measurement": "Activity", "setting": "[24]", "value": 30, "unit": "%"},
      {"measurement": "Activity", "setting": "[25]", "value": 97, "unit": "%"},
      {"measurement": "GI50", "setting": "PC-3", "value": 20.3, "unit": "µM"}
    ]}
  ]
}
